Measurements reported in ChEMBL document CHEMBL4739716, “Gpr139 receptor modulators” (2020).

What was measured:
[1] = target: T1, Probable G-protein coupled receptor 139 (Rattus norvegicus, UniProt P0C0W8); test: Agonist activity at rat GPR139 expressed in CHO-K1 cells assessed as increase in calcium flux by calcium 5 dye based FLIPR assay; format: cell-based
T1 sequence (P0C0W8 whole entry): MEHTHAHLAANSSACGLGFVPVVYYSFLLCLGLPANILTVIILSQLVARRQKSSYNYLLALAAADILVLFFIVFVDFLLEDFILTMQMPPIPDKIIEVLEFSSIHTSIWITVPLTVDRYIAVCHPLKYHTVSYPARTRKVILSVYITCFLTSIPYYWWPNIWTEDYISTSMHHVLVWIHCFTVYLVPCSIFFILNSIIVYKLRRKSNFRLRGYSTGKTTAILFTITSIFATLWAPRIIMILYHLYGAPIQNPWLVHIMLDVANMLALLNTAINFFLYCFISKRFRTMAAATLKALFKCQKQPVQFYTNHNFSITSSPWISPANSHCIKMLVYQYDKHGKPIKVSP

[2] = target: T2, Probable G-protein coupled receptor 139 (Rattus norvegicus) (UniProt P0C0W8); test: Agonist activity at rat GPR139 expressed in CHO-K1 cells assessed as increase in calcium flux by calcium 5 dye based FLIPR assay relative to JNJ63533054; format: cell-based
T2 sequence (whole entry): T1 sequence (P0C0W8 whole entry)

[3] = target: T3, Probable G-protein coupled receptor 139 (Homo sapiens) (UniProt Q6DWJ6); test: Agonist activity at human GPR139 expressed in CHO-K1 cells assessed as induction of beta-arrestin 2 recruitment incubated for 90 mins by PathHunter assay relative to JNJ63533054; format: cell-based
T3 sequence (whole entry): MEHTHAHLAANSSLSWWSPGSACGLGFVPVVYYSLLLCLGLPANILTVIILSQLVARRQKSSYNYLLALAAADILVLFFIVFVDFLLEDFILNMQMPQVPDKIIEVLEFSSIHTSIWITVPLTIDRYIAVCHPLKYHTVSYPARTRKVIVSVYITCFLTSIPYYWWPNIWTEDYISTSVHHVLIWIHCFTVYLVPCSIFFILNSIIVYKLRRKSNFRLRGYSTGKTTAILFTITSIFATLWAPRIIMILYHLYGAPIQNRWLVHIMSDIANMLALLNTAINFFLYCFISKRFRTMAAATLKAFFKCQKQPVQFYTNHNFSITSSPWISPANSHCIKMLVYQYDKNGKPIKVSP

[4] = target: T3, Probable G-protein coupled receptor 139 (Homo sapiens); test: Agonist activity at human GPR139 expressed in CHO-K1 cells assessed as increase in calcium flux by calcium 5 dye based FLIPR assay relative to JNJ63533054; format: functional, cell-based; details: filed as agonist
[5] = target: T4, Probable G-protein coupled receptor 139 (Homo sapiens, UniProt Q6DWJ6); test: Agonist activity at human GPR139 expressed in CHO-K1 cells assessed as increase in calcium flux by calcium 5 dye based FLIPR assay; format: functional, cell-based
T4 sequence (Q6DWJ6 whole entry): T3 sequence (whole entry)

[6] = target: T4, Probable G-protein coupled receptor 139; test: Agonist activity at human GPR139 expressed in CHO-K1 cells assessed as induction of beta-arrestin 2 recruitment incubated for 90 mins by PathHunter assay; format: cell-based

| Structure (SMILES) | EC50 [1] [nM] | Emax ([2]; filed as agonist) [%] | Emax ([3]; filed as agonist) [%] | Emax [4] [%] | EC50 [5] [nM] | EC50 ([6]; cho-k1) [nM] | EC50 ([5]; cho-k1) [nM] | EC50 [6] [nM] | EC50 ([1]; cho-k1) [nM] | Emax [3] [%] | Emax [2] [%] |
| --- | --- | --- | --- | --- | --- | --- | --- | --- | --- | --- | --- |
| COc1ccn2c(=O)n(CC(=O)N[C@@H](C)c3ccc(OC(F)(F)F)cc3)nc2c1 | < 1 | 50 | > 80 | > 80 | < 1 | 1 |  |  |  |  |  |
| C[C@H](NC(=O)Cn1nc2cc(OC3CN(C)C3)ccn2c1=O)c1ccc(OC(F)(F)F)cc1 | ≥ 100 | 50 | > 80 | 50 |  |  | 10 | ≥ 100 |  |  |  |
| C[C@H](NC(=O)Cn1nc2cc(N3CCC(O)CC3)ccn2c1=O)c1ccc(OC(F)(F)F)cc1 |  | > 80 |  | > 80 |  |  | 1 | ≥ 100 | 1 | 25 |  |
| C[C@H](NC(=O)Cn1nc2ncc(F)cn2c1=O)c1ccc(OC(F)(F)F)cc1 | ≥ 100 |  |  | > 80 |  |  | 1 | ≥ 100 |  | 25 | 25 |
| O=C(Cn1nc2cccnn2c1=O)NC1(c2cccc(Cl)c2)CC1 | ≥ 100 | 50 |  | 50 | ≥ 100 |  |  | ≥ 100 |  | < 25 |  |
| Cc1ccc2nn(CC(=O)N[C@@H](C)c3ccc(OC(F)(F)F)cc3)c(=O)n2c1 | < 1 | 50 | > 80 | > 80 | < 1 | 1 |  |  |  |  |  |
| Cc1ccnc2nn(CC(=O)N[C@@H](C)c3ccc(Cl)c(F)c3)c(=O)n12 |  | 50 | 50 | > 80 | < 1 | 1 |  |  | 10 |  |  |
